Measured values as given in patent US4522813A, “Cyclic hexapeptide somatostatin analogs” (Merck & Co., Inc., priority 1983, dated 1985).

Tests used:
portal vein glucagon = assay: Decrease of portal vein glucagon levels in anesthetized rats; assay type: in vivo, rat; conditions: multiple or fraction of the effect of somatostatin (=1), fiducial limits in parentheses, external jugular vein, portal vein blood after 5 minutes
Description: (§1) Analogs of somatostatin were compared to somatostatin in their ability to decrease the levels of portal vein glucagon and insulin in anesthetized rats. Male Sprague-Dawley rats (Charles River CD) weighing 160-200 g were anesthetized with urethane (150 mg/100 g of body weight; Aldrich). Saline or peptides were administered via the external jugular vein. After 5 minutes, the portal vein was exposed, and blood was collected via syringe containing 3 mg of EDTA and placed in chilled tubes containing 100 μl of Trasylol (FBA Pharmaceuticals) for subsequent hormone analysis. Plasma levels of glucagon were determined by the method of Faloona and Unger, Methods of Hormone Radioimmunoassay, Jaffe and Behrman (Eds), Academic Press, New York, Vol, II, pp. 257-527 (1976), utilizing glucagon antisera 30K obtained from R. Unger (Dallas, TX). Plasma levels of insulin were determined by a modification of the procedure of Herbert et al., J. Clin. Endocrinol. Metab., 25, 1375-1384 (1965).

[1] = test system: pentagastrin evoked gastric secretion; assay: Inhibition of pentagastrin evoked gastric secretion in the chronic fistula dog; assay type: in vivo; design: dose or concentration left out as unconfirmed; conditions: infusion 0-60 min., relative to placebo trial; for Gastric Secretion & Inhibition, Acid Concentration 0-30 / Gastric Secretion & Inhibition, Vol. 0-30: interval 0-30 min; for Gastric Secretion & Inhibition, Acid Concentration 30-60 / Gastric Secretion & Inhibition, Vol. 30-60: interval 30-60 min; for Gastric Secretion & Inhibition, Acid Concentration 60-90 / Gastric Secretion & Inhibition, Vol. 60-90: interval 60-90 min; for Gastric Secretion & Inhibition, Acid Concentration 90-120 / Gastric Secretion & Inhibition, Vol. 90-120: interval 90-120 min
Description: The gastric effects of the instant cyclichexapeptide analogs of somatostatin are determined by the following procedure.
Compounds were tested for their ability to inhibit pentagastrin evoked gastric secretion in the chronic fistula dog. Female beagle dogs with a chronic gastric fistula were given pentagastrin (2.5 μg./kg./hour, i.v. from -60 to 120 min.) and gastric outputs were collected via the fistula cannula. Samples were analyzed at 30 minute intervals for volume (Ml.) and titratable acid (mEq/L) (Titration to pH 7 with 0.01N NaOH); total acid output (mEq) was calculated as the production of output volume and acid concentration. Test compounds were infused at a constant rate from 0 to 60 minutes. Data have been expressed as percent change of total acid output relative to a placebo trial in the same animals.

[2] = test system: growth hormone release from rat pituitary cells; assay: In vitro inhibition of growth hormone release, cultured rat pituitary cells; assay type: cell-based; conditions: multiple or fraction of the effect of somatostatin (=1), fiducial limits in parentheses, 4 hours incubation
Description: The instant cyclic hexapeptide analogs of somatostatin are tested and compared with the effects of somatostatin in an in vitro test for the inhibition of growth hormone. The test is described as follows:
"Rat pituitaries were isolated according to the procedures of Vale and Grant "In vitro Pituitary Hormone Secretion Assay for Hypophysiotropic Substances" in Methods in Enzymology, Vol. XXXVII, eds. O'Malley, B. W. and Hardman, J. G. (Academic Press, Inc., New York) pp. 5-93 (1975).
After 4 days in culture, the cells were washed and incubated for 4 hours in Dulbecco-modified Eagle's medium in the presence or absence of graded doses of each analog or somatostatin. The medium was then collected for subsequent growth hormone determination by a double antibody radioimmunoassay for rat growth hormone."

portal vein insulin = assay: Decrease of portal vein insulin levels in anesthetized rats; assay type: in vivo, rat; conditions: multiple or fraction of the effect of somatostatin (=1), fiducial limits in parentheses, external jugular vein, portal vein blood after 5 minutes
Description: as §1

Compound | Glucagon Inhibition (portal vein glucagon) | Gastric Secretion & Inhibition, Acid Concentration 0-30 [1] | Gastric Secretion & Inhibition, Vol. 0-30 [1] | Gastric Secretion & Inhibition, Acid Concentration 30-60 [1] | Gastric Secretion & Inhibition, Vol. 30-60 [1] | Gastric Secretion & Inhibition, Acid Concentration 60-90 [1] | Gastric Secretion & Inhibition, Vol. 60-90 [1] | Gastric Secretion & Inhibition, Acid Concentration 90-120 [1] | Gastric Secretion & Inhibition, Vol. 90-120 [1] | Growth Hormone Release Inhibition [2] | Insulin Inhibition (portal vein insulin)
C[C@H](N)C(=O)NCC(=O)N[C@H]1CSSC[C@@H](C(=O)O)NC(=O)[C@H](CO)NC(=O)[C@H]([C@@H](C)O)NC(=O)[C@H](Cc2ccccc2)NC(=O)[C@H]([C@@H](C)O)NC(=O)[C@H](CCCCN)NC(=O)[C@H](Cc2c[nH]c3ccccc23)NC(=O)[C@H](Cc2ccccc2)NC(=O)[C@H](Cc2ccccc2)NC(=O)[C@H](CC(N)=O)NC(=O)[C@H](CCCCN)NC1=O [Somatostatin] | 1 | 16% | 85% | 77% | 97% | 61% | 81% | 14% | 37% | – | –
Cyclo--(Pro--Phe--D-Trp--t-D-AChxGly--Thr--Phe) | 0.07 | – | – | – | – | – | – | – | – | 0.11 | 0.07
Cyclo--(Pro--Phe--D-Trp--cis-AChxAla--Thr--Phe) | 2.2 (1.1, 4.7) | 4% | 75% | 19% | 82% | 13% | 20% | 5% | 2% | 0.5 (0.3, 0.6) | 1.4 (0.7, 2.7)
